Measurements: patent US20230104936A1, “TRPML MODULATORS” (Casma Therapeutics, Inc., priority 2019, published 2023)

system: TFEB; assay: TFEB nuclear translocation assay, HeLa wt cells; format: cell-based; conditions: Homo sapiens, HeLa, 2 h, 2 hrs compound treatment, Table 1 does not say HeLa wt or TRPML1 KO
How it was run: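 AC50 derived from the ratio of nuclear to perinuclear ring (−5 μm) anti-TFEB immunofluorescence, imaged at ×20 over four fields per well. HeLa wt or TRPML1 KO cells were exposed to compounds for 2 hrs at 37° C, then PFA-fixed and counterstained with Hoechst.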

Q: How did the AC50 turn out when CN(C)S(=O)(=O)c1ccc(S(=O)(=O)Nc2ccccc2N2CCC(C3(O)CC3)CC2)cc1 [Compound A-433, N4-{2-[4-(1-hydroxycyclopropyl)piperidin-1-yl]phenyl}-N1,N1-dimethylbenzene-1,4-disulfonamide] was run?
A: 2010 to 8000 nM

Q: With COCC1CCN(c2ccccc2NS(=O)(=O)c2ccc(S(=O)(=O)N(C)C)cc2)CC1 [Compound A-434, N4-{2-[4-(methoxymethyl)piperidin-1-yl]phenyl}-N1,N1-dimethylbenzene-1,4-disulfonamide] as the compound, how does the AC50 read?
A: ≤ 2000 nM

Q: CN(C)S(=O)(=O)c1ccc(S(=O)(=O)Nc2ccccc2N2CCC(C3CCCCO3)CC2)cc1 (stereo not shown) [Compound A-435, N1,N1-dimethyl-N4-{2-[4-(oxan-2-yl)piperidin-1-yl]phenyl}benzene-1,4-disulfonamide] was tested. Which AC50 did it give?
A: ≤ 2000 nM

Q: For CN(C)S(=O)(=O)c1ccc(S(=O)(=O)Nc2ccccc2N2CCC(C)(CO)CC2)cc1 [Compound A-436, N4-{2-[4-(hydroxymethyl)-4-methylpiperidin-1-yl]phenyl}-N1,N1-dimethylbenzene-1,4-disulfonamide], which AC50 is on record?
A: 2010 to 8000 nM

Q: With CN(C)S(=O)(=O)c1ccc(S(=O)(=O)Nc2ccccc2N2CCC(C3COCCO3)CC2)cc1 (stereo not shown) [Compound A-437, N4-{2-[4-(1,4-dioxan-2-yl)piperidin-1-yl]phenyl}-N1,N1-dimethylbenzene-1,4-disulfonamide] as the compound, how does the AC50 read?
A: 2010 to 8000 nM

Q: COCC1(C)CCN(c2ccccc2NS(=O)(=O)c2ccc(S(=O)(=O)N(C)C)cc2)CC1 [Compound A-438, N4-{2-[4-(methoxymethyl)-4-methylpiperidin-1-yl]phenyl}-N1,N1-dimethylbenzene-1,4-disulfonamide] was tested. Which AC50 did it give?
A: ≤ 2000 nM

Q: How did the AC50 turn out when CN1CC2(CCN(c3ccc(Cl)cc3NS(=O)(=O)c3ccc4c(c3)CCC4)CC2)c2ccc(F)cc21 [Compound A-439, N-(5-chloro-2-{6-fluoro-1-methyl-1,2-dihydrospiro[indole-3,4′-piperidin]-1′-yl}phenyl)-2,3-dihydro-1H-indene-5-sulfonamide] was run?
A: ≤ 2000 nM

Q: Which AC50 does the source give for CN(C)S(=O)(=O)c1ccc(S(=O)(=O)Nc2ccccc2N2CCC3(CC2)COC(C)(C)C3)cc1 [Compound A-440, N4-(2-{3,3-dimethyl-2-oxa-8-azaspiro[4.5]decan-8-yl}phenyl)-N1,N1-dimethylbenzene-1,4-disulfonamide] here?
A: ≤ 2000 nM

Q: How did the AC50 turn out when CN1CCc2ccccc2C12CCN(c1ccccc1NS(=O)(=O)c1ccc(S(C)(=O)=O)cc1)CC2 [Compound A-441, N-(2-(2-methyl-3,4-dihydro-2H-spiro[isoquinoline-1,4′-piperidin]-1′-yl)phenyl)-4-(methylsulfonyl)benzenesulfonamide] was run?
A: 2010 to 8000 nM

Q: For CN(C)S(=O)(=O)c1ccc(S(=O)(=O)Nc2ccccc2N2CCC3(CC2)CN(C(=O)OC2CCOC2)c2cc(F)ccc23)cc1 (stereo not shown) [Compound A-442, oxolan-3-yl 1′-{2-[4-(dimethylsulfamoyl)benzenesulfonamido]phenyl}-6-fluoro-1,2-dihydrospiro[indole-3,4′-piperidine]-1-carboxylate], which AC50 is on record?
A: ≤ 2000 nM

Q: Which AC50 does the source give for CC(Nc1ccccc1N1CCC(c2ccc(Cl)cc2F)CC1)c1ccc(S(=O)(=O)N(C)C)cc1 (stereo not shown) [Compound A-443, 4-[1-({2-[4-(4-chloro-2-fluorophenyl)piperidin-1-yl]phenyl}amino)ethyl]-N,N-dimethylbenzene-1-sulfonamide] here?
A: 2010 to 8000 nM

Q: With COC1(C(=O)N2CCN(c3ccccc3NS(=O)(=O)c3ccc(S(=O)(=O)N(C)C)cc3)CC2)CCCC1 [Compound A-444, N4-{2-[4-(1-methoxycyclopentanecarbonyl)piperazin-1-yl]phenyl}-N1,N1-dimethylbenzene-1,4-disulfonamide] as the compound, how does the AC50 read?
A: ≤ 2000 nM

Q: COC1(C(=O)N2CCN(c3ccccc3NS(=O)(=O)c3ccc(S(=O)(=O)N(C)C)cc3)CC2)CCCCC1 [Compound A-445, N4-{2-[4-(1-methoxycyclohexanecarbonyl)piperazin-1-yl]phenyl}-N1,N1-dimethylbenzene-1,4-disulfonamide] was tested. Which AC50 did it give?
A: ≤ 2000 nM

Q: How did the AC50 turn out when CN(C)S(=O)(=O)c1ccc(S(=O)(=O)Nc2ccccc2N2CCN(C(=O)C(C)(F)F)CC2)cc1 [Compound A-446, N4-{2-[4-(2,2-difluoropropanoyl)piperazin-1-yl]phenyl}-N1,N1-dimethylbenzene-1,4-disulfonamide] was run?
A: 2010 to 8000 nM

Q: How did the AC50 turn out when CN(C)S(=O)(=O)c1ccc(S(=O)(=O)Nc2ccccc2N2CCN(C(=O)N3CC4CC3C4)CC2)cc1 [Compound A-447] was run?
A: 2010 to 8000 nM

Q: With CN(C)S(=O)(=O)c1ccc(S(=O)(=O)Nc2ccccc2N2CCN(C(=O)C3(C)CCCCO3)CC2)cc1 (stereo not shown) [Compound A-448, N1,N1-dimethyl-N4-{2-[4-(2-methyloxane-2-carbonyl)piperazin-1-yl]phenyl}benzene-1,4-disulfonamide] as the compound, how does the AC50 read?
A: ≤ 2000 nM

Q: How did the AC50 turn out when CN(C)S(=O)(=O)c1ccc(S(=O)(=O)Nc2ccccc2N2CCN(C3CCCOC3)CC2)cc1 (stereo not shown) [Compound A-450, N1,N1-dimethyl-N4-{2-[4-(oxan-3-yl)piperazin-1-yl]phenyl}benzene-1,4-disulfonamide] was run?
A: 8010 to 9990 nM

Q: How did the AC50 turn out when CCC1(N2CCOCC2)CCN(c2ccccc2NS(=O)(=O)c2ccc(S(=O)(=O)N(C)C)cc2)CC1 [Compound A-451, N4-{2-[4-ethyl-4-(morpholin-4-yl)piperidin-1-yl]phenyl}-N1,N1-dimethylbenzene-1,4-disulfonamide] was run?
A: ≤ 2000 nM

Q: CCC1(N2CCCC2)CCN(c2ccccc2NS(=O)(=O)c2ccc(S(=O)(=O)N(C)C)cc2)CC1 [Compound A-452, N4-{2-[4-ethyl-4-(pyrrolidin-1-yl)piperidin-1-yl]phenyl}-N1,N1-dimethylbenzene-1,4-disulfonamide] was tested. Which AC50 did it give?
A: 8010 to 9990 nM

Q: CN(C)S(=O)(=O)c1ccc(S(=O)(=O)Nc2ccccc2N2CCN(C3CCCC3)CC2)cc1 [Compound A-453, N4-[2-(4-cyclopentylpiperazin-1-yl)phenyl]-N1,N1-dimethylbenzene-1,4-disulfonamide] was tested. Which AC50 did it give?
A: 2010 to 8000 nM

Q: With COC1(C)CCN(c2ccccc2NS(=O)(=O)c2ccc(S(=O)(=O)N(C)C)cc2)CC1 [Compound A-454, N4-[2-(4-methoxy-4-methylpiperidin-1-yl)phenyl]-N1,N1-dimethylbenzene-1,4-disulfonamide] as the compound, how does the AC50 read?
A: ≤ 2000 nM

Q: For CCC(C)(C)N1CCN(c2ccccc2NS(=O)(=O)c2ccc(S(=O)(=O)N(C)C)cc2)CC1 [Compound A-455, N1,N1-dimethyl-N4-{2-[4-(2-methylbutan-2-yl)piperazin-1-yl]phenyl}benzene-1,4-disulfonamide], which AC50 is on record?
A: 2010 to 8000 nM

Q: With CC(N1CCN(c2ccccc2NS(=O)(=O)c2ccc(S(=O)(=O)N(C)C)cc2)CC1)C(F)(F)F (stereo not shown) [Compound A-456, N1,N1-dimethyl-N4-{2-[4-(1,1,1-trifluoropropan-2-yl)piperazin-1-yl]phenyl}benzene-1,4-disulfonamide] as the compound, how does the AC50 read?
A: ≤ 2000 nM

Q: Which AC50 does the source give for CC(C)Oc1ccc(S(=O)(=O)Nc2cccc(Cl)c2N2CCOCC2)cc1 [Compound A-457, N-[3-chloro-2-(morpholin-4-yl)phenyl]-4-(propan-2-yloxy)benzene-1-sulfonamide] here?
A: 2010 to 8000 nM

Q: For COC1(C(=O)N2CCN(c3ccccc3NS(=O)(=O)c3ccc(S(=O)(=O)N(C)C)cc3)CC2)CCC1 [Compound A-458, N4-{2-[4-(1-methoxycyclobutanecarbonyl)piperazin-1-yl]phenyl}-N1,N1-dimethylbenzene-1,4-disulfonamide], which AC50 is on record?
A: 2010 to 8000 nM

Q: CN(C)S(=O)(=O)c1ccc(S(=O)(=O)Nc2ccccc2N2CCN(C(=O)C3CCCC3(F)F)CC2)cc1 (stereo not shown) [Compound A-459, N4-{2-[4-(2,2-difluorocyclopentanecarbonyl)piperazin-1-yl]phenyl}-N1,N1-dimethylbenzene-1,4-disulfonamide] was tested. Which AC50 did it give?
A: 2010 to 8000 nM

Q: With CN(C)S(=O)(=O)c1ccc(S(=O)(=O)Nc2ccccc2N2CCN(C(=O)C34CCC(CC3)C4)CC2)cc1 [Compound A-460, N4-[2-(4-{bicyclo[2.2.1]heptane-1-carbonyl}piperazin-1-yl)phenyl]-N1,N1-dimethylbenzene-1,4-disulfonamide] as the compound, how does the AC50 read?
A: ≤ 2000 nM

Q: How did the AC50 turn out when CN(C)S(=O)(=O)c1ccc(S(=O)(=O)Nc2ccccc2N2CCN(C(=O)C3(F)CC3)CC2)cc1 [Compound A-461, N4-{2-[4-(1-fluorocyclopropanecarbonyl)piperazin-1-yl]phenyl}-N1,N1-dimethylbenzene-1,4-disulfonamide] was run?
A: 2010 to 8000 nM

Q: For CN(C)S(=O)(=O)c1ccc(S(=O)(=O)Nc2ccccc2N2CCN(C(=O)C3CC34CC4)CC2)cc1 (stereo not shown) [Compound A-462, N1,N1-dimethyl-N4-[2-(4-{spiro[2.2]pentane-1-carbonyl}piperazin-1-yl)phenyl]benzene-1,4-disulfonamide], which AC50 is on record?
A: 2010 to 8000 nM

Q: For CCC1(N2CCN(c3ccccc3NS(=O)(=O)c3ccc(S(=O)(=O)N(C)C)cc3)CC2)COC1 [Compound A-464, N4-{2-[4-(3-ethyloxetan-3-yl)piperazin-1-yl]phenyl}-N1,N1-dimethylbenzene-1,4-disulfonamide], which AC50 is on record?
A: 2010 to 8000 nM

Q: How did the AC50 turn out when CC(c1ccccc1N1CCN(Cc2ccccc2)CC1)S(=O)(=O)c1ccc(S(=O)(=O)N(C)C)cc1 (stereo not shown) [Compound A-465, 4-((1-(2-(4-benzylpiperazin-1-yl)phenyl)ethyl)sulfonyl)-N,N-dimethylbenzenesulfonamide] was run?
A: ≤ 2000 nM

Q: How did the AC50 turn out when COCCN1CC2(CCN(c3ccccc3NS(=O)(=O)c3ccc(S(C)(=O)=O)cc3)CC2)c2ccc(F)cc21 [Compound A-466, N-{2-[6-fluoro-1-(2-methoxyethyl)-1,2-dihydrospiro[indole-3,4′-piperidin]-1′-yl]phenyl}-4-methanesulfonylbenzene-1-sulfonamide] was run?
A: ≤ 2000 nM

Q: CS(=O)(=O)c1ccc(S(=O)(=O)Nc2ccccc2N2CCC3(CC2)CN(CC2CCCO2)c2cc(F)ccc23)cc1 (stereo not shown) [Compound A-467, N-(2-{6-fluoro-1-[(oxolan-2-yl)methyl]-1,2-dihydrospiro[indole-3,4′-piperidin]-1′-yl}phenyl)-4-methanesulfonylbenzene-1-sulfonamide] was tested. Which AC50 did it give?
A: ≤ 2000 nM

Q: How did the AC50 turn out when CS(=O)(=O)c1ccc(S(=O)(=O)Nc2ccccc2N2CCC3(CC2)CN(CC2CC2(F)F)c2cc(F)ccc23)cc1 (stereo not shown) [Compound A-468, N-(2-{1-[(2,2-difluorocyclopropyl)methyl]-6-fluoro-1,2-dihydrospiro[indole-3,4′-piperidin]-1′-yl}phenyl)-4-methanesulfonylbenzene-1-sulfonamide] was run?
A: ≤ 2000 nM
